{"source": "patent US9018178B2", "about": "“Method for the treatment of food, feed and agricultural products with a polyene antifungal compound” (DSM IP Assets B.V., priority 2007, dated 2015)", "origin": "cited, not measured here", "system": "common food spoilage yeasts and moulds", "conditions": "most strains of common food spoilage yeasts and moulds", "data": [{"smiles": "C[C@@H]1C/C=C/C=C/C=C/C=C/[C@H](O[C@@H]2O[C@H](C)[C@@H](O)[C@H](N)[C@@H]2O)C[C@@H]2O[C@](O)(C[C@@H](O)C[C@H]3O[C@@H]3/C=C/C(=O)O1)C[C@H](O)[C@H]2C(=O)O", "note": "[natamycin]", "values": [{"measurement": "Concentrations inhibiting most strains", "result": "1-15 ppm"}]}]}
